Earlier results in patent publication US8507276B2, “Tissue culture media used as a component of cosmetics” (La Prairie Group AG, priority 2003, dated 2013).
Like-named read-outs stand apart in the source and are kept apart here.

Row | Polarity (nonpolar lipids) [mN/m] | Polarity (medium-polar lipids) [mN/m] | Molecule | other results
1 | 31.7 |  | CCCCCCCCOC(=O)OCCCCCCCC [Cetiol CC, Dicarpylyl Carbonate] | 
2 |  |  | C12-13 Alkyl Lactate [Cosmacol ELI] | Polarity (polar lipids): 8.8 mN/m
3 |  | 21.8 | C12-15 Alkyl Benzoate [Finsolv TN] | 
4 |  | 21.3 | Caprylic/Capric Triglyceride [Miglyol 812] | 
5 |  | 28.6 | Cetearyl Isononanoate [Cetiol SN] | 
6 | 40.3 |  | Decyl Olivate [Lipodermanol OL] | 
7 | 30.0 |  | Octyl Cocoate [Estol 1540 EHC] | 
8 |  |  | Propylene Glycol Dicaprylate/Dicaprate [Miglyol 840] | Polarity (polar lipids): 18.7 mN/m
